{"source": "patent US20250011878A1", "about": "“METHOD TO DETECT RNA BIOMARKERS” (ITALFARMACO SPA, priority 2021, published 2025)", "key": {"[1]": {"target": "T1, HDAC6 (Mus musculus, UniProt Q9Z2V5)", "T1 construct": "Spleens were collected and total splenocytes suspension was prepared; from tissue; host or cells: spleen (splenocytes) of BALB/c mice bearing CT26 tumors", "T1 sequence (Q9Z2V5 1-1149)": "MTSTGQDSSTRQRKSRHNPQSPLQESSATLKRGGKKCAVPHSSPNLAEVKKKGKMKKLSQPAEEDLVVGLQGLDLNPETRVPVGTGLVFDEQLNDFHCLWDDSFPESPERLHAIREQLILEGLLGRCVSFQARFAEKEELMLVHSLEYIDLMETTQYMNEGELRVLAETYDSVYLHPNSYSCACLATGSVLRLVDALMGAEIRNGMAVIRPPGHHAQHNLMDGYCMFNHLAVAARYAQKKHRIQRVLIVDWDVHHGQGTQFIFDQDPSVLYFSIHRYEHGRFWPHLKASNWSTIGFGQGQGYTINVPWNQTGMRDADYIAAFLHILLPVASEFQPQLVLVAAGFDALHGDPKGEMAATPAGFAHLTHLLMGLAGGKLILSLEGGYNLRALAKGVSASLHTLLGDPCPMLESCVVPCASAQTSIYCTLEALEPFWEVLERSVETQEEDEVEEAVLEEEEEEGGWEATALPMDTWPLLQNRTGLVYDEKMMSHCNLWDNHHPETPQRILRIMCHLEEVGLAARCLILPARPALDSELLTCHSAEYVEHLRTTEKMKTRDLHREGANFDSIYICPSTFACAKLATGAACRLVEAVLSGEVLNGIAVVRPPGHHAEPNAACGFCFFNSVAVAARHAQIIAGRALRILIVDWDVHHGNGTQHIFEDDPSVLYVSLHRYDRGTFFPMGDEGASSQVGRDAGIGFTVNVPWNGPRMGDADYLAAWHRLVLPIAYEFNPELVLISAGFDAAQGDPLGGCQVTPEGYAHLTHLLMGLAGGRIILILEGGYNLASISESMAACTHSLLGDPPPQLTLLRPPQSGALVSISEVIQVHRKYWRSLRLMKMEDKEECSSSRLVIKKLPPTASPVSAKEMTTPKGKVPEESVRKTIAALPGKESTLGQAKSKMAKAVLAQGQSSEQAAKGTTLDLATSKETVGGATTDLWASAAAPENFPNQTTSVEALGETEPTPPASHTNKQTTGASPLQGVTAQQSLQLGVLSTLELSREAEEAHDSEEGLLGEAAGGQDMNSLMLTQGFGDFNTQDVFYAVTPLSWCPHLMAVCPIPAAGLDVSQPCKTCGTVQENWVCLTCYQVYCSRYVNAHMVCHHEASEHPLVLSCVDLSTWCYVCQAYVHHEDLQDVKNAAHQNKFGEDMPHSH", "assay": "Target engagement: tubulin acetylation in spleen of CT26 tumor bearing mice (western blot)", "format": "in vivo, BALB/c mice", "details": "50 mpk os, 8 administrations (Table 9)", "description": "Adult BALB/c mice were injected s.c. with 1×10^6 CT26 tumor cells (diluted to 100 μl with phosphate buffered saline) and treated with anti-PD1 or ITF3756 when the tumor volume reached 75-100 mm^3, to explore the modulation of genes in the tumor microenvironment by RNAseq. Since ITF3756 acts on the PD-1/PD-L1 axis, this approach allows the identification of genes specific and common to both treatments. The overall schedule is described in Table 9.\nWhole cell extracts were obtained by lysing mice spleens with Triton Buffer (50Mm Tris-HCl ph 7.5, 250 mM NaCl, 50 mM NaF, 1 mM EDTA pH 8, 0.1% Triton), supplemented with protease and phosphatase inhibitors (Roche, Germany). Proteins were separated by SDS-PAGE, transferred onto PVDF membranes and blocked with PBS-T (Phosphate-buffared saline and 0.1% Tween-20 containing 5% non-fat dry milk for one hour at room temperature (RT). The incubation with primary antibodies was performed for two hours at RT, followed by incubation with the appropriate horseradish peroxidase-conjugated secondary antibody. Detection was performed with ECL Western Blot Reagent (Amerscham). The antibodies used were: mouse anti acetylated tubulin (Sigma, T6793), mouse anti tubulin (Sigma, T6074), goat anti-mouse IgG (H+L)-HRP conjugate (Bio-Rad, 1706516).\nDensitometry analysis was performed using ImageJ software. […]\nTo ascertain HDAC6 inhibition by ITF3756, the spleen of the animals were collected at all sacrifice time points (1 hour, 4 hours, 18 hours and 24 hours). Tubulin acetylation and total tubulin were detected by western blotting.\nTumor bearing animals were sacrificed at various time points after the last administration. Spleens were collected and total splenocytes suspension was prepared. Pelleted cells were lysed to obtain a total protein extract […] by electrophoresis. Tubulin and acetyl-tubulin were detected after western blotting using specific antibodies."}, "[2]": {"tested_on": "macrophages", "assay": "in vitro macrophage differentiation in the presence of ITF3756", "format": "cell-based"}}, "data": [{"smiles": "O=C(NO)c1ccc(Cn2nnnc2-c2cccs2)cc1", "note": "[ITF3756, N-hydroxy-4-((5-(thiophen-2-yl)-1 H-tetrazol-1-yl)methyl)benzamide]", "values": [{"measurement": "tubulin acetylation in spleen", "setting": "[1]; 1 hour after the last treatment", "result": "strong increase"}, {"measurement": "tubulin acetylation in spleen", "setting": "[1]; 4 hours after the last treatment", "result": "maintained until 4 hours"}, {"measurement": "tubulin acetylation in spleen", "setting": "[1]; 18 hours after the last treatment", "result": "still high and consistent"}, {"measurement": "tubulin acetylation in spleen", "setting": "[1]; 24 hours after the last treatment", "result": "still detectable, but not in all the animals analysed"}, {"measurement": "M1 macrophages", "setting": "[2]", "result": "increase in M1 macrophages"}]}]}
